Experimental data published in PMC9597602, “Metal Complexes as Antifungals? From a Crowd-Sourced Compound Library to the First In Vivo Experiments” (JACS Au, 2022).
Values joined by “and” are separate entries in the source; they are usually repeats but may differ in a detail not shown here. Equal values may be shown once. Read-outs that look alike come from different tables or passages of the source. Each block holds one compound with its values, some of them ahead of it.

Legend:
[1] = tested on: Candida albicans ATCC 90028 NCCLS11; experiment: Antifungal MIC assay; type: cell-based; conditions: for MIC: Candida albicans, ATCC90028, comparator antifungals, read-out: MIC* Candida albicans ATCC 90028
Description: For the fungal assays, both fungi (yeast) strains were cultured for 3 days on Yeast Extract-Peptone Dextrose (YPD; Becton Dickinson 242720) agar at 30 °C. A yeast suspension of 1 × 10^6 to 5 × 10^6 CFU/mL (as determined by OD530) was prepared from five colonies from the agar plates, subsequently diluted with Yeast Nitrogen Base media (YNB; Becton Dickinson 233520), and added to each well of the compound containing plates (384-well plates, NBS; Corning CLS3640), giving a final cell density of 2.5 × 10^3 CFU/mL and a total volume of 50 μL. Plates were covered and incubated at 35 °C for 36 h without shaking. […] […], equivalent to ″optically clear-to-slightly hazy″ or MIC score of 0–1 as per CLSI guidelines M27 Reference Method for Broth Dilution Antifungal Susceptibility Testing of Yeasts. […] Fluconazole (Sigma F8929) was used as internal control on each plate for all strains. All compounds were tested as two technical replicates in two to four independent biological assays, n = 4–8 final data.

[2] = tested on: Escherichia coli ATCC 25922 FDA control strain; experiment: CO-ADD antibacterial MIC assay; type: cell-based
Description: (§1) For the all the bacterial assays, each bacterial strain was cultured in cation-adjusted Mueller Hinton broth (CAMHB; Bacto Laboratories 212322) at 37 °C overnight. A sample of each culture was then diluted 40-fold in fresh CAMHB and incubated at 37 °C for 1.5–3 h. The resultant mid-log phase cultures were diluted with CAMHB (CFU/mL measured by OD600) and then added to each well of the compound-containing plates (384-well non-binding surface (NBS) plates; Corning CLS3640), giving a cell density of 5 × 10^5 CFU/mL and a total volume of 50 μL. Plates were covered and incubated at 37 °C for 18 h without shaking. Inhibition of bacterial growth was determined by measuring the absorbance at 600 nm (OD600) using media only as negative control and bacteria without inhibitors as positive control. MIC values were determined as the lowest concentration at which the growth was inhibited by ≥80% (equivalent to no visible growth by the eye). Colistin sulfate (Sigma C4461) and vancomycin HCl (Sigma 861987) were used as internal controls on each plate for Gram-negative and Gram-positive bacteria, respectively. All compounds were tested as two technical replicates in two independent biological assays, n = 4 final data.

[3] = tested on: methicillin-resistant Staphylococcus aureus ATCC 43300; experiment: CO-ADD antibacterial MIC assay; type: cell-based
Description: as §1

[4] = tested on: Acinetobacter baumannii ATCC 19606 type strain; experiment: CO-ADD antibacterial MIC assay; type: cell-based
Description: as §1

[5] = tested on: Pseudomonas aeruginosa ATCC 27853 QC control strain; experiment: CO-ADD antibacterial MIC assay; type: cell-based
Description: as §1

human red blood cells = type: cell-based; conditions: initial CO-ADD screening, 1 h; 10% hemolysis
Description: Human whole blood (Australian Red Cross) was washed three times with 3 vol of 0.9% NaCl and resuspended in a concentration of 0.5 × 10^8 cells/mL, determined by a manual cell count in a Neubauer hemocytometer. […] After incubation, the plates were centrifuged at 1000g for 10 min to pellet cells and debris; 25 μL of the supernatant was then transferred to reading plates (384-well, polystyrene plated (PS), Corning CLS3680), with hemolysis determined by measuring the supernatant absorbance at […] (OD405) using cells without inhibitors as negative control and cells with 1% Triton X-100 (Sigma T8787) as positive control. […] Melittin (Sigma M2272) was used as internal control on each plate.

[6] = tested on: HEK-293 human embryonic kidney cells ATCC CRL-1573
Description: The cells were incubated together with the compounds for 20 h at 37 °C in 5% CO2. […] Tamoxifen (Sigma T5648) was used as internal control on each plate.

[7] = tested on: Cryptococcus neoformans H99 ATCC 208821 type strain; experiment: Antifungal MIC assay; type: cell-based; conditions: for MIC: Cryptococcus neoformans, ATCC208821, read-out: MIC* Cryptococcus neoformans ATCC 208821
Description: For the fungal assays, both fungi (yeast) strains were cultured for 3 days on Yeast Extract-Peptone Dextrose (YPD; Becton Dickinson 242720) agar at 30 °C. A yeast suspension of 1 × 10^6 to 5 × 10^6 CFU/mL (as determined by OD530) was prepared from five colonies from the agar plates, subsequently diluted with Yeast Nitrogen Base media (YNB; Becton Dickinson 233520), and added to each well of the compound containing plates (384-well plates, NBS; Corning CLS3640), giving a final cell density of 2.5 × 10^3 CFU/mL and a total volume of 50 μL. Plates were covered and incubated at 35 °C for 36 h without shaking. […] MIC values were recorded as the lowest concentration at which the growth was inhibited by ≥80%, equivalent to ″optically clear-to-slightly hazy″ or MIC score of 0–1 as per CLSI guidelines M27 Reference Method for Broth Dilution Antifungal Susceptibility Testing of Yeasts. […] Fluconazole (Sigma F8929) was used as internal control on each plate for all strains. All compounds were tested as two technical replicates in two to four independent biological assays, n = 4–8 final data.

[8] = tested on: Candida auris CBS10913 JCM 15448; experiment: Antifungal MIC assay, extended panel; type: cell-based; conditions: Candidozyma auris, comparator antifungals, read-out: MIC* Candida auris CBS10913
Description: (§2) For the fungal assays, both fungi (yeast) strains were cultured for 3 days on Yeast Extract-Peptone Dextrose (YPD; Becton Dickinson 242720) agar at 30 °C. A yeast suspension of 1 × 10^6 to 5 × 10^6 CFU/mL (as determined by OD530) was prepared from five colonies from the agar plates, subsequently diluted with Yeast Nitrogen Base media (YNB; Becton Dickinson 233520), and added to each well of the compound containing plates (384-well plates, NBS; Corning CLS3640), giving a final cell density of 2.5 × 10^3 CFU/mL and a total volume of 50 μL. Plates were covered and incubated at 35 °C for 36 h without shaking. […] MIC […] Reference Method for Broth Dilution Antifungal Susceptibility Testing of Yeasts. […] Fluconazole (Sigma F8929) was used as internal control on each plate for all strains. All compounds were tested as two technical replicates in two to four independent biological assays, n = 4–8 final data.

[9] = tested on: Candida auris CBS12373 KCTC 17810; experiment: Antifungal MIC assay, extended panel; type: cell-based; conditions: Candidozyma auris, comparator antifungals, read-out: MIC* Candida auris CBS12373
Description: as §2

[10] = initial CO-ADD dose-response screening, ≥80% growth inhibition
[11] = ≥80% inhibition, converted with MW of Table S12
[12] = single concentration (32 µg/mL) CO-ADD Primary Screening, no inhibition, no dose-response

- MIC Ca [1, 10]: 4 µg/mL
- MIC Ec [2, 10]: 32 µg/mL
- MIC MRSA (Sa) [3, 10]: 16 µg/mL
- MIC Ab [4, 10]: > 32 µg/mL
- MIC Pa [5, 10]: > 32 µg/mL
- MIC Cn [7, 10]: 16 µg/mL
Structure (SMILES): Cc1cccc2[n+]1[Au-]([Cl])([Cl])[n+]1c(C)cccc1C(c1ccccc1)=C=C2c1ccccc1.[Cl-] [Au-S11]
- RBC HC10 (human red blood cells): > 32 µg/mL
- HEK CC50 ([6]; initial CO-ADD screening, 20 h): > 32 µg/mL

Structure (SMILES): CC(=O)N1CCN(c2ccc(OCC3COC(Cn4ccnc4)(c4ccc(Cl)cc4Cl)O3)cc2)CC1 (stereo not drawn) [Ketoconazole, reference compound]
- MIC ([8]; MIC = ≥80% inhibition): 0.004 to 0.016 µg/mL
- MIC [8, 11]: 0.01 to 0.042 µM
- MIC ([9]; MIC = ≥80% inhibition): ≤ 0.004 µg/mL
- MIC [9, 11]: ≤ 0.01 µM
- MIC ([1]; MIC = ≥80% inhibition): 0.002 to 0.004 µg/mL
- MIC [1, 11]: 0.005 to 0.01 µM
- MIC [7]: > 64 µg/mL and > 170 µM

Structure (SMILES): O=[N+]([O-])[O-].[Ag+] [AgNO3, reference compound]
- MIC Ca [1, 10]: 0.25 µg/mL
- MIC Ec [2, 10]: 0.25 µg/mL
- MIC MRSA (Sa) [3, 10]: 2 µg/mL
- MIC Ab [4, 10]: 0.25 µg/mL
- MIC Pa [5, 10]: 0.25 µg/mL
- RBC HC10 (human red blood cells): 8.9 µg/mL
- HEK CC50 ([6]; initial CO-ADD screening, 20 h): > 32 µg/mL
- MIC Cn [7, 10]: 0.25 µg/mL

- MIC Ca [1, 10]: <= 0.25 μg/mL
- MIC Ec [2, 10]: > 32 µg/mL
- MIC MRSA (Sa) [3, 10]: <= 0.25 μg/mL
- MIC Ab [4, 10]: 32 µg/mL
- MIC Pa [5, 10]: > 32 µg/mL
- MIC Cn [7, 10]: <= 0.25 μg/mL
Structure (SMILES): Cc1cccc(C2(c3ccccc3)[C]([Au-][Cl])=C(c3ccccc3)c3cccc(C)[n+]32)n1 (stereo not drawn) [Au-S14]
- RBC HC10 (human red blood cells): 23.7 µg/mL
- HEK CC50 ([6]; initial CO-ADD screening, 20 h): 0.7 µg/mL

- MIC Ca [1, 12]: > 32 µg/mL
- MIC Ec [2, 12]: > 32 µg/mL
- MIC MRSA (Sa) [3, 12]: > 32 µg/mL
- MIC Ab [4, 12]: > 32 µg/mL
- MIC Pa [5, 12]: > 32 µg/mL
- MIC Cn [7, 12]: > 32 µg/mL
Structure (SMILES): COc1ccc(/C=C/C2=NN(c3ccc(C(=O)O)cc3)C(c3ccc(OC)c(OC)c3)C2)cc1OC (racemic) [Ligand-Ag1]

- MIC Ca [1, 10]: 20 µM
- MIC Ec [2, 10]: > 20 µM
- MIC MRSA (Sa) [3, 10]: > 20 µM
- MIC Ab [4, 10]: > 20 µM
- MIC Pa [5, 10]: > 20 µM
- MIC Cn [7, 10]: 20 µM
Structure (SMILES): O=C([O][Eu]([O]C(=O)c1ccccc1F)[O]C(=O)c1ccccc1F)c1ccccc1F.c1cnc2c(c1)ccc1cccnc12 [Eu-S6]
- RBC HC10 (human red blood cells): > 20 µM
- CC50 ([6]; read-out: HEK CC50, initial CO-ADD screening, 20 h): 9.9 µM

Structure (SMILES): Cc1ccnc([S][Au][PH](c2ccco2)(c2ccco2)c2ccco2)n1 [Au-S2]
- HEK CC50 ([6]; initial CO-ADD screening, 20 h): 1.38 µg/mL

Structure (SMILES): FC(F)(F)c1ccnc([S][Au][PH](c2ccco2)(c2ccco2)c2ccco2)n1 [Au-S3]
- MIC MRSA (Sa) [3, 10]: 0.25 µg/mL

Structure (SMILES): CC1=C(C)C(C)C(c2ccc(-c3ccccc3)cc2)=C1C.Cc1ccccc1NC1=[N][Ir]([Cl])[NH]C(NS(=O)(=O)c2ccc([N+](=O)[O-])cc2)=N1 [Ir2]
- CC50 ([6]; read-out: HEK293 CC50, ranges obtained upon retesting, new batch): 62 to 65 µM

- MIC Ca [1, 12]: > 32 µg/mL
- MIC Ec [2, 12]: > 32 µg/mL
- MIC MRSA (Sa) [3, 12]: > 32 µg/mL
- MIC Ab [4, 12]: > 32 µg/mL
- MIC Pa [5, 12]: > 32 µg/mL
- MIC Cn [7, 12]: > 32 µg/mL
Structure (SMILES): O=C(O)c1ccc(N2N=C(/C=C/C=C/c3ccccc3)CC2/C=C/c2ccccc2)cc1 (racemic) [Ligand-Ag2]

Structure (SMILES): C[C@@H](c1ncncc1F)[C@](O)(Cn1cncn1)c1ccc(F)cc1F [Voriconazole, reference compound]
- MIC ([8]; MIC = ≥80% inhibition): 0.004 to 0.008 µg/mL
- MIC [8, 11]: 0.016 to 0.032 µM
- MIC ([9]; MIC = ≥80% inhibition): 0.156 µg/mL
- MIC [9, 11]: 0.447 µM
- MIC ([1]; MIC = ≥80% inhibition): 0.008 µg/mL
- MIC [1, 11]: 0.032 µM
- MIC [7]: ≥ 64 µg/mL and ≥ 260 µM

Structure (SMILES): FC(F)(F)c1ccnc([S][Au][PH](c2ccccc2)(c2ccccc2)c2ccccc2)n1 [Au-S6]
- MIC MRSA (Sa) [3, 10]: 0.25 µg/mL

- MIC Ca [1, 10]: 0.25 µg/mL
Structure (SMILES): Cn1ccn(Cc2ccccc2)[c]1=[Au]1[S][Mo]2([S]1)[S][Au](=[c]1n(C)ccn1Cc1ccccc1)[S]2 (stereo not drawn) [Au-S10]

- MIC Ca [1, 12]: > 32 µg/mL
- MIC Ec [2, 12]: > 32 µg/mL
- MIC MRSA (Sa) [3, 12]: > 32 µg/mL
- MIC Ab [4, 12]: > 32 µg/mL
- MIC Pa [5, 12]: > 32 µg/mL
- MIC Cn [7, 12]: > 32 µg/mL
Structure (SMILES): O=C(O)c1ccc(N2N=C(/C=C/c3ccccc3)CC2c2ccccc2)cc1 (racemic) [Ligand-Ag3]

Structure (SMILES): c1ccc([S][Au][PH](c2ccco2)(c2ccco2)c2ccco2)nc1 [Au-S1]
- MIC Ca [1, 10]: 16 µg/mL
- MIC MRSA (Sa) [3, 10]: 16 µg/mL
- MIC Cn [7, 10]: 16 µg/mL
